The values below come from PMC7522794, “Synthesis and evaluation of novel 2,4-disubstituted arylthiazoles against T. brucei” (RSC Medicinal Chemistry, 2019).

Molecules are shown by their SMILES. Where only a bound is given, the exact number is not on record here.

Data set [1] has as its system Bloodstream form T. brucei (strain 427). The data set can be described thus: Trypanocidal activity against bloodstream form T. brucei (Alamar Blue growth inhibition). Type of data set: cell-based, Trypanosoma brucei. Particulars: Trypanosoma brucei, 48 hours + overnight Alamar Blue; for IC50: concentration that inhibits growth by 50%; for IC90: concentration that inhibits growth by 90%. The protocol: Bloodstream form T. brucei (strain 427) were cultured at 37 °C in modified Iscove's medium. Trypanocidal activity was assessed by growing parasites in microtiter plates in the presence of various drug concentrations. […] The plates were incubated for 48 hours at 37 °C and 20 μL Alamar Blue was then added to each well. After an additional overnight incubation, the fluorescence was determined. Inhibition of growth was calculated by comparison with control values and IC50 and IC90 values were determined in triplicate using linear regression analysis.
In general terms: Resazurin is reduced to fluorescent resorufin, in cell work by metabolically active cells.

A short description of data set [2]: Cytotoxic activity against rat skeletal myoblast L6 cells (Alamar Blue). Type of data set: cell-based. As to conditions: rat, L6 cells (rat skeletal muscle line); cytotoxicity, 6 days incubation + 8 hours Alamar Blue. The protocol:
(§1) Cytotoxicity against mammalian cells was assessed using microtitre plates. Briefly, L6 cells (a rat skeletal muscle line) were seeded at 1 × 10^4 mL^–1 in 200 μL of growth medium containing 7 different compound concentrations in a range previously established to encompass both the IC50 and IC90 values. The plates were incubated for 6 days at 37 °C and 20 μL Alamar Blue (Biosource UK Ltd) was then added to each well. After an additional 8 hours incubation, the fluorescence was determined using a FLUOstar Omega fluorescent plate reader (BMG Labtech). Inhibition of growth was calculated by comparison with control values and IC50 and IC90 values were determined in triplicate using linear regression analysis.

Data set [3] has as its system L6 cells. Described as above. Particulars: ratio of IC50 values obtained with L6 cells and T. brucei. Type of data set: cell-based. How it is done:
as §1

Broadly, the IC50 is the concentration at which inhibition is half-maximal. Broadly, the IC90 is the point of the concentration-response curve where the effect stands at 90%. As usually defined, the melting point is the temperature, or range, at which the solid turns liquid. The compound `Br.NCCc1nc(-c2ccc(C34CC5CC(CC(C5)C3)C4)cc2)cs1` [Compound 3c, 2-{4-[4-(1-Tricyclo[3.3.1.1^3,7]decyl)phenyl]thiazol-2-yl}ethanamine hydrobromide] showed a melting point of 261 to 263 °C. Also, in data set [1], the IC50 was 2740 ± 290 nM and the IC90 came to 4400 ± 70 nM. Besides, the IC50 in data set [2] is 4160 ± 240 nM. In addition, in data set [3], the “S.I. (selectivity index)” value was 1.5.
For the compound `NCCc1csc(-c2ccc(C34CC5CC(CC(C5)C3)C4)cc2)n1` [Compound 2a, 2-{2-[4-(1-Tricyclo[3.3.1.1^3,7]decyl)phenyl]thiazol-4-yl}ethan-1-amine], in data set [1], the IC50 came out at 800 ± 30 nM and the 90% effect concentration (IC90) was found to be 1170 ± 10 nM. Further, the 50% inhibitory concentration (IC50) in data set [2] worked out at 4080 ± 150 nM. Further, the “S.I. (selectivity index)” value in data set [3] amounted to 5.1.
The corresponding values for `CNCCc1csc(-c2ccc(C34CC5CC(CC(C5)C3)C4)cc2)n1` [Compound 2b, 2-{2-[4-(1-Tricyclo[3.3.1.1^3,7]decyl)phenyl]thiazol-4-yl}-N-methylethan-1-amine] are 590 ± 20 nM, 790 ± 10 nM, 960 ± 260 nM and 1.6.
Regarding `CNCCc1csc(-c2ccc(F)c(C34CC5CC(CC(C5)C3)C4)c2)n1` [Compound 1b, 2-{2-[3-(1-Tricyclo[3.3.1.1^3,7]decyl)-4-fluorophenyl]thiazol-4-yl}-N-methylethan-1-amine], in data set [1], the 50% inhibitory concentration (IC50) worked out at 900 ± 10 nM and the concentration for an effect of 90% (IC90) is 1100 ± 10 nM. Also, the IC50 in data set [2] came out at 2010 ± 320 nM. In addition, the “S.I. (selectivity index)” value in data set [3] is 2.2.
Compound `Br.CN(C)CCc1nc(-c2ccc(C34CC5CC(CC(C5)C3)C4)cc2)cs1` [Compound 3d, 2-{4-[4-(1-Tricyclo[3.3.1.1^3,7]decyl)phenyl]thiazol-2-yl}-N,N-dimethylethan-1-amine dihydrochloride] showed a melting point of 200 to 202 °C. Further, the IC50 in data set [2] stood at 3190 ± 250 nM. The “S.I. (selectivity index)” value in data set [3] is 2.3.
Take `NCCc1csc(-c2ccc(F)c(C34CC5CC(CC(C5)C3)C4)c2)n1` [Compound 1a, 2-{2-[3-(1-Tricyclo[3.3.1.1^3,7]decyl)-4-fluorophenyl]thiazol-4-yl}ethan-1-amine]: in data set [1], the IC50 was 420 ± 10 nM and the 90% effect concentration (IC90) stood at 560 ± 10 nM. For the same compound, the IC50 in data set [2] came out at 1050 ± 230 nM. The “S.I. (selectivity index)” value in data set [3] is listed as 2.5.
As to `Br.Nc1nc(-c2ccc(C34CC5CC(CC(C5)C3)C4)cc2)cs1` [Compound 3a, 4-[4-(1-Tricyclo[3.3.1.1^3,7]decyl)phenyl]thiazol-2-amine hydrobromide], the melting point is 345 °C (dec.). In data set [1], the IC50 turned out to be 22500 ± 600 nM and the IC90 worked out at 30500 ± 4500 nM. In addition, the IC50 in data set [2] amounted to 13800 ± 1600 nM. Further, the “S.I. (selectivity index)” value in data set [3] is given as below 1.
In the case of `O=C(NCCc1csc(-c2ccc(F)c(C34CC5CC(CC(C5)C3)C4)c2)n1)N1CCCCC1` [Compound 1j, N-{2-[2-(3-(1-Tricyclo[3.3.1.1^3,7]decyl)-4-fluorophenyl)thiazol-4-yl}ethyl)piperidine-1-yl-carboxamide], the figures for the IC50 in data set [1] and in data set [2] were 10700 ± 300 nM and below 10300 nM, respectively. In data set [1], the IC90 is 12600 ± 200 nM. For the same compound, the “S.I. (selectivity index)” value in data set [3] was below 1.
